Laboratory results: US12662509B2, “Inhibitors of 17β-HSD7 and uses thereof” (UNIVERSITÉ LAVAL, priority 2021, dated 2026)

Tests used:
[1] = system: human MCF-7 breast tumors; test: MCF-7 xenograft tumor growth in OVX nude mice; format: in vivo; conditions: for growth of human MCF-7 breast tumors, % of initial growth: OVX nude mice, INH7 groups 5 mg/kg/day + E1 0.1 μg/mice/day, E1, E2 groups 0.1 μg/mice/day
Description: FIG. 4—is an illustration of the effect of various inhibitors of 17 β-HSD1 (INH7-10 and INH7-464) on the growth of human MCF-7 breast tumors in nude mice over a period of 22 days; illustration of the regression of MCF-7 xenograft tumor growth in OVX nude mice (cf. Table 1). The growth regression curves represent the decrease in tumor volume in response to INH7 (INH7-10 and INH7-464) treatment (Groups 4 and 5). […] Tumor volume=0.52×(length×width^2). Statistical significance by one-way ANOVA assay is shown by **P<0.01.
(§1) Female athymic nude mice (4 weeks) were ovariectomized under isoflurane-induced anesthesia. One week after ovariectomy (OVX), 5×10^6 MCF-7 cells or 10×10^6 T47D cells suspended in a […] mixture of Matrigel (BD)/culture medium (50:50) were administered by s.c. injection on both side of each mice. All mice were supplemented by daily s.c. injection 0.1 μg Estradiol (E2) for 5 weeks. […] The animals were euthanized on day 23, followed by the collection of tumor specimens and blood samples. The estrogen-sensitive organs (uterus and vagina), liver and kidney were removed and excised of fat and weighed. Tumor specimens were photographed and weighed.

human T47D breast tumors = test: T47D xenograft tumor growth in OVX nude mice; format: in vivo; conditions: for growth of human T47D breast tumors, % of initial growth: OVX nude mice, INH7 groups 5 mg/kg/day + E1 0.1 μg/mice/day, E1, E2 groups 0.1 μg/mice/day
Description: FIG. 5—is an illustration of the effect of various inhibitors of 17 β-HSD1 (INH7-10 and INH7-464) on the growth of human T47D breast tumors in nude mice over a period of 22 days; illustration of the regression of T47D xenograft tumor growth in OVX nude mice by (cf. Table 2). The growth regression curves represent the decrease in tumor volume in response to INH7 (INH7-10 and INH7-464) treatment (Groups 4 and 5). […] Statistical significance by one-way ANOVA assay is shown by **P<0.01.
as §1

[2] = Cytotoxicity on the MCF-7 cell line; format: cell-based; conditions: human, MCF-7 cells; incubation time 3 days; 1 nM-100 μM
Description: (§2) FIG. 9A—is an illustration of the cytotoxicity of the INH7-464 inhibitor on the MCF-7 cell line. FIG. 9B—is an illustration of the cytotoxicity of the INH7-464 inhibitor on the MCF-10A cell line. Paclitaxel (PTX) was used as the reference compound and was dissolved in DMSO for the stock solutions. The stock solutions were subsequently diluted at multiple concentrations with culture media in order to obtain the final desired concentrations ranging between 1 nM-100 μM. The incubation time was 3 days. The IC50 values (at which 50% of cell growth inhibition—concentration that inhibits 50% of cell proliferation—is observed) were calculated using an iterative least square regression method (cf. Table 3). The cytotoxicity values for the INH7-464 inhibitor were lower than those for Paclitaxel (PTX) in the different cell lines (cf. Table 3).
(§3) Paclitaxel (PTX) was used as a reference compound and was dissolved in DMSO for the stock solutions. The stock solutions were subsequently diluted at multiple concentrations with culture media in order to obtain the final desired concentrations ranging from 1 nM-100 μM. The incubation time was 3 days. The IC50 values (at which 50% of cell growth inhibition—concentration that inhibits 50% of cell proliferation—is observed) were calculated using an iterative least square regression method.

[3] = Cytotoxicity on the MCF-10A cell line; format: cell-based; conditions: human, MCF-10A cells; incubation time 3 days; 1 nM-100 μM
Description: as §2, §3

MCF-7 cell proliferation = test: Effect of INH7 inhibitors on MCF-7 cell proliferation (DNA synthesis, 144 hours, E1 0.1 nM); format: cell-based, human; conditions: 2 μM
Description: FIG. 1—is an illustration of the effect of various inhibitors of […] (INH7-10, INH7-81 and INH7-464) on MCF-7 cell proliferation over a period of 144 hours.
The effects of various inhibitors, including INH7-464, on MCF-7 cell proliferation over a period of 144 hours is illustrated in FIG. 1. The hormone source E1 (Estrone) was provided at 0.1 nM. Data are reported as % of DNA synthesis vs Control (0.1 nM E1) (100%). Quadruple wells were used for each condition and repeated in three independent experiments. Error bars represent SD. *, P<0.05 vs control; **, P<0.001 vs. control by Student's test.

[4] = Toxicity of INH7-464 in mice, weekly s.c. injection over 21 days; format: in vivo
Description: FIG. 10—is an illustration of the toxicity of the INH7-464 inhibitor in mice (8 mice/group) at various concentrations over a period of 21 days. Control Group: 0.4% methylcellulose/DMSO (92/8). INH7-464 group: Day 1: 20 mg/kg (INH7-464); Day 8: 30 mg/kg (INH7-464); Day 15: 60 mg/kg (INH7-464). […] Statistical significance by T-test is shown by ***P<0.001.
FIG. 11—is an illustration of the effect (toxicity) of the INH7-464 inhibitor on the liver, kidney, ovary and uterus weight, as per the toxicity experiment illustrated in FIG. 10.
INH7-464 was administered by s.c. injection. INH7-464 was first dissolved in DMSO, followed by the addition of 0.4% methylcellulose to obtain a final 8% concentration of co-solvent (methylcellulose/DMSO (92/8). The injected volume was 0.1 mL (s.c.). […] All the mice were weighed every day. The liver, kidney, ovaries, and uterus were collected and weighed following 3 weeks of treatment.

[5] = Body weight of nude mice during treatment of MCF-7 and T47D tumors; format: in vivo; conditions: MCF-7 and T47D tumor-bearing nude mice; 22 days; 5 mg/kg/day
Description: FIG. 6A—is an illustration of the body weight of the nude mice following treatment of human MCF-7 and T47D breast tumors with INH7-47 over a period of 22 days. […] (FIG. 6B) is an illustration of the body weight of the OVX nude mice (mice having undergone an ovariectomy) over a period of 22 days. The OVX mice were not treated with an INH7 inhibitor, but instead were subjected to daily subcutaneous (s.c.) injection with vehicle (0.4% methylcellulose/DMSO (92/8)).
as §1

Row | SMILES | growth of human MCF-7 breast tumors, % of initial growth ([1]; day 0) | growth of human MCF-7 breast tumors, % of initial growth ([1]; day 5) | growth of human MCF-7 breast tumors, % of initial growth ([1]; day 9) | growth of human MCF-7 breast tumors, % of initial growth ([1]; day 12) | growth of human MCF-7 breast tumors, % of initial growth ([1]; day 13) | growth of human MCF-7 breast tumors, % of initial growth ([1]; day 19) | growth of human MCF-7 breast tumors, % of initial growth ([1]; day 22) | growth of human T47D breast tumors, % of initial growth (human T47D breast tumors; day 0) | growth of human T47D breast tumors, % of initial growth (human T47D breast tumors; day 5) | growth of human T47D breast tumors, % of initial growth (human T47D breast tumors; day 9) | growth of human T47D breast tumors, % of initial growth (human T47D breast tumors; day 12) | growth of human T47D breast tumors, % of initial growth (human T47D breast tumors; day 15) | growth of human T47D breast tumors, % of initial growth (human T47D breast tumors; day 19) | growth of human T47D breast tumors, % of initial growth (human T47D breast tumors; day 22) | IC50 at 3 days [2] | IC50 at 3 days [3] | further results
1 | C[C@]12CC[C@@H]3c4ccc(O)cc4CC[C@H]3[C@@H]1CCC2=O [E1, Estrone] | 100% | 102.886% | 100.227% | 109.033% | 95.3089% | 100.249% | 102.648% | 100% | 93.64% | 113.43% | 112.0519% | 122.0034% | 112.9356% | 112.831% | – | – | –
2 | C[C@]12CC[C@@H]3c4ccc(O)cc4CC[C@H]3[C@@H]1CC[C@@H]2O [E2, Estradiol] | 100% | 82.8535% | 97.2662% | 131.541% | 123.252% | 108.413% | 120.974% | 100% | 112.55% | 120.84% | 121.306% | 150.417% | 144.117% | 138.919% | – | – | –
3 | CC(=O)O[C@H]1C(=O)[C@@]2(C)[C@H]([C@H](OC(=O)c3ccccc3)[C@]3(O)C[C@H](OC(=O)[C@H](O)[C@@H](NC(=O)c4ccccc4)c4ccccc4)C(C)=C1C3(C)C)[C@]1(OC(C)=O)CO[C@@H]1C[C@@H]2O [Paclitaxel (PTX), Paclitaxel] | – | – | – | – | – | – | – | – | – | – | – | – | – | – | 3.08 nM | 0.637 nM | –
4 | CCCCCCCCCN1C[C@]2(CC[C@H]3[C@@H]4CC[C@H]5NC(=O)CC[C@]5(C)[C@H]4CC[C@@]32C)OC1=O [INH7-464, (4aR,4bS,6aS,7R,9aS,9bR,11aR)-4a,6a-dimethyl-3′-nonyltetradecahydrospiro [indeno[5,4-f]quinoline-7,5′-oxazolidine]-2,2′(1H)-dione] | 100% | 88.1406% | 81.8741% | 84.2617% | 66.5956% | 67.8843% | 59.6876% | 100% | 100.51% | 78.1158% | 76.9139% | 63.5165% | 67.9195% | 50.9558% | 582 nM | 2670 nM | inhibition of MCF-7 cell proliferation (% of DNA synthesis vs control 0.1 nM E1) (MCF-7 cell proliferation): significant inhibition at 2 μM; decrease in the tumor size relative to the control (E1) ([1]; MCF-7 xenograft model, day 22, 5 mg/kg/day): 60%±5%; decrease in the tumor size relative to the control (E1) (human T47D breast tumors; T47D xenograft model, day 22, 5 mg/kg/day): 51%±5%; tolerability after weekly subcutaneous injection ([4]; 8/group, 20-60 mg/kg weekly s.c. for 3 weeks (21 days)): very well tolerated; apparent toxicity ([4]; 20-60 mg/kg weekly (s.c.)): no apparent toxicity; weight changes of liver, kidney, ovary and uterus ([4]; after 3 weeks of weekly s.c. 20, 30 and 60 mg/kg): no significant weight changes; body weight of the nude mice [5]: absence of weight loss
